Experimental data as given in paper PMC9172283 (Antiviral Research, 2022).

Columns and labels:
SARS-CoV-2 M^pro = SARS-CoV-2 M^pro (Severe acute respiratory syndrome coronavirus 2, UniProt P0DTD1); assay: FRET-based SARS-CoV-2 M^pro activity assay in vitro; type: biochemical; settings: for Inhibitory effect on M^pro catalytic activity at fixed concentration: 100 μM, cut-off 50% of inhibition
SARS-CoV-2 [1] = assay: Plaque reduction assay; type: cell-based, SARS-CoV-2/NL/2020 strain; settings: ratio between CC50 and EC50; SARS-CoV-2, Vero E6 cells
[2] = MTT cell viability assay in Vero E6 cells; type: cell-based; settings: African green monkey
HCoV-OC43 = assay: Plaque reduction assay against HCoV-OC43 in MRC-5 cells; type: cell-based; settings: infected MRC-5 cells
HCoV-229E = assay: microbe, parasite or virus in culture; type: cell-based; settings: for EC50: Human coronavirus 229E, MRC5, 144 h, read-out: HCoV-229E EC50
[3] = MTT cell viability assay in MRC-5 cells; type: cell-based; settings: human
SARS-CoV-2 [4] = assay: Virus yield reduction assay of SARS-CoV-2 in Calu-3 cells; type: cell-based; settings: MOI 0.01, 36 h p.i., titration on Vero E6

Row | Compound | Inhibitory effect on M^pro catalytic activity at fixed concentration (SARS-CoV-2 M^pro) | SI, Selectivity Index (SARS-CoV-2 [1]) | CC50 at 72 h [2] | further results
1 | CCOc1ccc(NC(=O)C(=O)NCCc2csc3nc(-c4cccs4)nn23)cc1 [Compound 1] | exerted an inhibitory effect | >10 | > 500 µM | IC50 (SARS-CoV-2 M^pro): 142 ± 12 µM
2 | CC(NC(=O)C(=O)NCCN1CCOCC1)C(c1cccs1)N1CCN(c2ccccc2)CC1 (centres unmarked) [Compound 2] | – | >10 | > 500 µM | –
3 | CCOc1ccccc1NC(=O)C(=O)NCC(c1cccnc1)N1CCN(c2ccccc2)CC1 (centres unmarked) [Compound 3] | not a significant inhibitory effect | >40 | > 500 µM | Activity towards HCoV-OC43 (HCoV-OC43): retained activity; Activity towards HCoV-229E (HCoV-229E): retained activity; EC50 (HCoV-229E): 34.6 ± 8.5 µM; CC50 at 72 h [3]: > 500 µM
4 | O=C(NCc1ccc(F)cc1)C(=O)NCC(c1cccnc1)N1CCN(c2ccccc2)CC1 (centres unmarked) [Compound 4] | not a significant inhibitory effect | >24 | > 500 µM | Activity towards HCoV-OC43 (HCoV-OC43): retained activity; Activity towards HCoV-229E (HCoV-229E): retained activity; EC50 (HCoV-229E): 23.8 ± 9.9 µM; CC50 at 72 h [3]: 300 ± 18 µM
5 | CCC(C)C(NC(=O)C1N2C(=O)c3ccccc3C2SC1(C)C)C(=O)NC(CO)C(C)C (centres unmarked) [Compound 6] | not a significant inhibitory effect | – | > 500 µM | Activity towards HCoV-OC43 (HCoV-OC43): retained activity; IC50 (SARS-CoV-2 M^pro): > 100 µM; SARS-CoV-2 titers in supernatants of infected and treated Calu-3 cells (SARS-CoV-2 [4]): significantly reduced SARS-CoV-2 titers; Activity towards HCoV-229E (HCoV-229E): retained activity; EC50 (HCoV-229E): 22.9 ± 4.9 µM; CC50 at 72 h [3]: > 500 µM
6 | COc1ccc(C(=O)Nc2ccccc2C(=O)NC(C(=O)Nc2ccccc2)C(C)C)cc1 (centres unmarked) [Compound 7] | exerted an inhibitory effect | >10 | > 500 µM | IC50 (SARS-CoV-2 M^pro): 111 ± 2.2 µM
7 | CCOC(=O)C(NC(=O)COc1ccccc1)(Nc1nc2ccccc2s1)C(F)(F)F (centres unmarked) [Compound 8] | – | 3 | 68.8 ± 15.4 µM | –
8 | O=C(Nc1ccccc1C(=O)NCc1ccccc1)c1cc(S(=O)(=O)N2CCOCC2)ccc1F [Compound 9] | – | >10 | > 500 µM | –
9 | O=C(CCC(=O)NNC(=O)C(c1ccccc1)c1ccccc1)NCc1ccccc1 [Compound 10] | exerted an inhibitory effect | >10 | > 500 µM | IC50 (SARS-CoV-2 M^pro): 128 ± 18.8 µM
10 | CC(=O)NCC(=O)NC1(C(=O)NC(c2ccccc2)c2ccccc2)CCCCC1 [Compound 11] | – | >10 | > 500 µM | –
11 | O=C(NC(Cc1ccccc1)C(=O)NCc1ccccn1)OCc1ccccc1 (centres unmarked) [Compound 12] | not a significant inhibitory effect | 21 | 428 ± 11 µM | –
12 | COc1ccc(NC2=NC(=O)CC(C(=O)NCc3ccccc3)N2)cc1 (centres unmarked) [Compound 13] | – | >10 | > 500 µM | –
13 | CCN1CCN(C(C(=O)O)c2c[nH]c3ccc(NC(=O)CCC(=O)O)cc23)CC1 (centres unmarked) [Compound 14] | – | >10 | > 500 µM | –
14 | CCOC(=O)C1=C(CN2CCCN(C(=O)OC(C)(C)C)CC2)NC(=O)NC1c1ccc(C)cc1 (centres unmarked) [Compound 15] | – | 8 | 113 ± 3 µM | –
15 | COC(=O)C1=C(CN2CCN(C(=O)OC(C)(C)C)CC2)NC(=O)NC1c1ccccc1 (centres unmarked) [Compound 16] | – | 10 | 401 ± 52 µM | –
16 | CCOC(=O)C1=C(CN2CCC(NC(=O)OC(C)(C)C)CC2)NC(=O)NC1c1ccccc1 (centres unmarked) [Compound 17] | – | >5 | 228 ± 6 µM | –
17 | COc1ccc(C(=O)COC(=O)C(Cc2ccccc2)N2C(=O)C3C4C=CC(C4)C3C2=O)cc1 (centres unmarked) [Compound 18] | – | >10 | > 500 µM | –

Row | Compound | Inhibitory effect on M^pro catalytic activity at fixed concentration (SARS-CoV-2 M^pro) | SI, Selectivity Index (SARS-CoV-2 [1]) | CC50 at 72 h [2] | further results
18 | CCc1cc(Br)cc2c(C(=O)N3CCOCC3)cc(-c3ccc(OC)cc3)nc12 [Compound 19] | not a significant inhibitory effect | 32 | 228 ± 69 µM | –
19 | COc1ccc(C(=O)CN(C(=O)c2ccc(Cl)cc2)N2C(=O)CCC2=O)cc1 [Compound 20] | – | >10 | > 500 µM | –
20 | COc1ccc2c(c1)c(CC(=O)O)c(C)n2C(=O)c1ccc(Cl)cc1 [Compound 21] | – | >10 | > 500 µM | –
21 | Nc1ncnc2c1ncn2[C@@H]1O[C@H](CSCC[C@H](N)C(=O)O)[C@@H](O)[C@H]1O [Compound 22] | – | >10 | > 500 µM | –
22 | COc1ccc(Cc2nn3c([C@@H](CCCc4ccccc4)[C@@H](C)O)nc(C)c3c(=O)[nH]2)cc1OC [Compound 23] | not a significant inhibitory effect | – | – | –
23 | COc1ccc(-c2ocnc2C(=O)NCCCn2cncn2)cc1Cl [Compound 24] | not a significant inhibitory effect | – | > 500 µM | –
24 | COc1ccc(-c2cc(C(F)(F)F)n3ncc(C(=O)Nc4sc5c(c4C(N)=O)CCCC5)c3n2)cc1 [Compound 26] | exerted an inhibitory effect | 7 | 68.9 ± 10 µM | IC50 (SARS-CoV-2 M^pro): 57.6 ± 4.1 µM
25 | Cc1ccc(-c2cc(C(F)(F)F)n3ncc(C(=O)Nc4sc5c(c4C(N)=O)CCCC5)c3n2)cc1 [Compound 27] | exerted an inhibitory effect | 5 | 67.9 ± 16.5 µM | IC50 (SARS-CoV-2 M^pro): 46.2 ± 7.7 µM
26 | NC(=O)c1c(NC(=O)c2cnn3c(C(F)F)cc(-c4ccccc4)nc23)sc2c1CCCC2 [Compound 28] | – | >5 | > 250 µM | –
27 | CCC(C)NC(=O)c1ccccc1NC(=O)c1cccc(S(=O)(=O)Nc2ccccc2)c1 (centres unmarked) [Compound 29] | not a significant inhibitory effect | – | > 500 µM | Activity towards HCoV-OC43 (HCoV-OC43): retained activity; Activity towards HCoV-229E (HCoV-229E): retained activity; EC50 (HCoV-229E): 15.7 ± 4.8 µM; CC50 at 72 h [3]: > 250 µM
28 | CCC(C)NC(=O)c1ccccc1NC(=O)c1ccc(C)c(S(=O)(=O)Nc2cccc(NC(=O)c3ccccc3)c2)c1 (centres unmarked) [Compound 30] | – | >10 | > 500 µM | –
29 | COc1ccc(C(=O)Nc2ccccc2C(=O)N[C@H](C(=O)Nc2ccccc2)C(C)C)cc1 [Compound 31, (S)-2-(4-Methoxybenzamido)-N-(3-methyl-1-oxo-1-(phenylamino)butan-2-yl)benzamide] | – | >5 | > 250 µM | IC50 (SARS-CoV-2 M^pro): 43.7 ± 9.2 µM; Fold increase of inhibitory potency against M^pro compared to parental hit 7 (SARS-CoV-2 M^pro; compared to hit 7): > 2 fold
30 | COc1ccc(C(=O)Nc2ccccc2C(=O)N[C@H](C(=O)N[C@H](CO)C(C)C)C(C)C)cc1 [Compound 32, N-((S)-1-(((S)-1-Hydroxy-3-methylbutan-2-yl)amino)-3-methyl-1-oxobutan-2-yl)-2-(4-methoxybenzamido)benzamide] | – | >8 | > 250 µM | IC50 (SARS-CoV-2 M^pro): > 200 µM
31 | COc1ccc(C(=O)Nc2ccccc2C(=O)N[C@H](C(=O)NC2CCCCC2)C(C)C)cc1 [Compound 33, (S)-N-(1-(Cyclohexylamino)-3-methyl-1-oxobutan-2-yl)-2-(4-methoxybenzamido)benzamide] | – | >7 | > 250 µM | IC50 (SARS-CoV-2 M^pro): 26.7 ± 7.3 µM
32 | CCNC(=O)[C@@H](NC(=O)c1ccccc1NC(=O)c1ccc(OC)cc1)C(C)C [Compound 34, (S)-N-(1-(Ethylamino)-3-methyl-1-oxobutan-2-yl)-2-(4-methoxybenzamido)benzamide] | – | >5 | > 250 µM | –
33 | CC(C)[C@H](NC(=O)c1ccccc1NC(=O)c1ccc(O)cc1)C(=O)N[C@H](CO)C(C)C [Compound 35, N-((S)-1-(((S)-1-Hydroxy-3-methylbutan-2-yl)amino)-3-methyl-1-oxobutan-2-yl)-2-(4-hydroxybenzamido)benzamide] | – | >10 | > 250 µM | IC50 (SARS-CoV-2 M^pro): 19 ± 8.4 µM
34 | CCC(CC)COC(=O)[C@H](C)N[P@](=O)(OC[C@H]1O[C@@](C#N)(c2ccc3c(N)ncnn23)[C@H](O)[C@@H]1O)Oc1ccccc1 [RMV, remdesivir, reference compound] | – | – | > 250 µM | EC50 (HCoV-229E): 0.09 ± 0.03 µM
